{"source": "ChEMBL document CHEMBL5442168", "about": "“ASAP - In vitro liver microsomal stability” (2024)", "key": {"[1]": {"assay": "(§1) Mouse liver microsomal stability of compound in microsomal protein, PBS buffer pH 7.4, NADPH, glucose-6-phosphate and glucose-6-phosphate dehydrogenase media. Aliquotes were taken at 5 time points and after stopping the reaction, supernatants were analyzed using HPLC coupled with a tandem mass spectrometer. The elimination constant, half-life, and intrinsic clearance are determined as results using linear regression analysis. The assay has been performed by Enamine biological services, Bienta Ltd.The protocol is publicly available: dx.doi.org/10.17504/protocols.io.5qpvokdb9l4o/v1", "type": "ADME, microsomes, Microsome", "conditions": "for CLint / Remaining (without cofactor) / T1/2 / Remaining: microsomes; for half-life / microsomal CLint: liver microsomes"}, "[2]": {"assay": "as §1, with “Human” for “Mouse”", "type": "ADME, microsomes, Microsome", "conditions": "for half-life / microsomal CLint: liver microsomes; for CLint / Remaining / Remaining (without cofactor) / T1/2: microsomes"}}, "note": "Several values for one entry are separate records, joined by “and”; a condition that tells them apart may be missing. Equal entries are not always repeated. Throughout, for Remaining (without cofactor): time not given here. Throughout, for Remaining: time not given here.", "data": [{"smiles": "CC(C)[C@@H](Nc1ncnc2[nH]ccc12)c1ccc2c(c1)S(=O)(=O)CCC2", "values": [{"measurement": "CLint", "setting": "[1]", "result": "138 µL/min/mg and 55 µL/min/mg"}, {"measurement": "Remaining (without cofactor)", "setting": "[1]", "result": "103% and 117%"}, {"measurement": "T1/2", "setting": "[1]", "result": "12.1 min and 30.4 min"}, {"measurement": "half-life", "setting": "[2]", "result": 44.7, "unit": "min"}, {"measurement": "microsomal CLint", "setting": "[2]", "result": 37, "unit": "µL/min/mg"}, {"measurement": "CLint", "setting": "[2]", "result": 21, "unit": "µL/min/mg"}, {"measurement": "Remaining", "setting": "[2]", "result": "53% and 69%"}, {"measurement": "Remaining (without cofactor)", "setting": "[2]", "result": 99, "unit": "%"}, {"measurement": "T1/2", "setting": "[2]", "result": 78.6, "unit": "min"}]}, {"smiles": "CNC(=O)c1cc2c(N[C@@H](c3ccc4c(c3)OCCO4)C(C)C)ncnc2[nH]1", "values": [{"measurement": "half-life", "setting": "[1]", "result": 30.5, "unit": "min"}, {"measurement": "microsomal CLint", "setting": "[1]", "result": 55, "unit": "µL/min/mg"}, {"measurement": "Remaining", "setting": "[1]", "result": 43, "unit": "%"}, {"measurement": "Remaining (without cofactor)", "setting": "[1]", "result": 112, "unit": "%"}, {"measurement": "half-life", "setting": "[2]", "result": 21.1, "unit": "min"}, {"measurement": "microsomal CLint", "setting": "[2]", "result": 79, "unit": "µL/min/mg"}, {"measurement": "Remaining", "setting": "[2]", "result": 23, "unit": "%"}, {"measurement": "Remaining (without cofactor)", "setting": "[2]", "result": 92, "unit": "%"}]}, {"smiles": "COc1ccc([C@@H](Cc2nnn[nH]2)NC(=O)c2ncnc3[nH]ccc23)cc1", "values": [{"measurement": "half-life", "setting": "[1]", "result": 4400, "unit": "min"}, {"measurement": "Remaining", "setting": "[1]", "result": 96, "unit": "%"}, {"measurement": "Remaining (without cofactor)", "setting": "[1]", "result": 93, "unit": "%"}, {"measurement": "half-life", "setting": "[2]", "result": 314, "unit": "min"}, {"measurement": "microsomal CLint", "setting": "[2]", "result": 5, "unit": "µL/min/mg"}, {"measurement": "Remaining", "setting": "[2]", "result": 86, "unit": "%"}, {"measurement": "Remaining (without cofactor)", "setting": "[2]", "result": 110, "unit": "%"}]}, {"smiles": "CC(C)[C@@H](Nc1ncnc2[nH]c(-c3cnn(C)c3C#N)cc12)c1ccc2c(c1)OCCO2", "values": [{"measurement": "half-life", "setting": "[1]", "result": 7.7, "unit": "min"}, {"measurement": "microsomal CLint", "setting": "[1]", "result": 218, "unit": "µL/min/mg"}, {"measurement": "CLint", "setting": "[1]", "result": 129, "unit": "µL/min/mg"}, {"measurement": "Remaining", "setting": "[1]", "result": "3% and 13%"}, {"measurement": "Remaining (without cofactor)", "setting": "[1]", "result": "97% and 106%"}, {"measurement": "T1/2", "setting": "[1]", "result": 13, "unit": "min"}, {"measurement": "half-life", "setting": "[2]", "result": 22.6, "unit": "min"}, {"measurement": "microsomal CLint", "setting": "[2]", "result": 74, "unit": "µL/min/mg"}, {"measurement": "CLint", "setting": "[2]", "result": 47, "unit": "µL/min/mg"}, {"measurement": "Remaining", "setting": "[2]", "result": "25% and 46%"}, {"measurement": "Remaining (without cofactor)", "setting": "[2]", "result": "111% and 101%"}, {"measurement": "T1/2", "setting": "[2]", "result": 35.4, "unit": "min"}]}, {"smiles": "CNC(=O)c1c[nH]c2ncnc(N[C@@H](c3ccc4c(c3)OCCO4)C(C)C)c12", "values": [{"measurement": "half-life", "setting": "[1]", "result": 19, "unit": "min"}, {"measurement": "microsomal CLint", "setting": "[1]", "result": 88, "unit": "µL/min/mg"}, {"measurement": "Remaining", "setting": "[1]", "result": 20, "unit": "%"}, {"measurement": "Remaining (without cofactor)", "setting": "[1]", "result": 95, "unit": "%"}, {"measurement": "half-life", "setting": "[2]", "result": 21.2, "unit": "min"}, {"measurement": "microsomal CLint", "setting": "[2]", "result": 79, "unit": "µL/min/mg"}, {"measurement": "Remaining", "setting": "[2]", "result": 27, "unit": "%"}, {"measurement": "Remaining (without cofactor)", "setting": "[2]", "result": 113, "unit": "%"}]}, {"smiles": "CC(C)[C@H](CO)Nc1ncnc2[nH]ccc12", "values": [{"measurement": "half-life", "setting": "[1]", "result": 171, "unit": "min"}, {"measurement": "microsomal CLint", "setting": "[1]", "result": 10, "unit": "µL/min/mg"}, {"measurement": "Remaining", "setting": "[1]", "result": 90, "unit": "%"}, {"measurement": "Remaining (without cofactor)", "setting": "[1]", "result": 93, "unit": "%"}, {"measurement": "half-life", "setting": "[2]", "result": 289, "unit": "min"}, {"measurement": "microsomal CLint", "setting": "[2]", "result": 6, "unit": "µL/min/mg"}, {"measurement": "Remaining", "setting": "[2]", "result": 119, "unit": "%"}, {"measurement": "Remaining (without cofactor)", "setting": "[2]", "result": 99, "unit": "%"}]}, {"smiles": "CC(C)[C@@H](Nc1ncnc2[nH]cc(C(N)=O)c12)c1ccc2c(c1)OCCO2", "values": [{"measurement": "half-life", "setting": "[1]", "result": 11.7, "unit": "min"}, {"measurement": "microsomal CLint", "setting": "[1]", "result": 142, "unit": "µL/min/mg"}, {"measurement": "Remaining", "setting": "[1]", "result": 9, "unit": "%"}, {"measurement": "Remaining (without cofactor)", "setting": "[1]", "result": 98, "unit": "%"}, {"measurement": "half-life", "setting": "[2]", "result": 11.7, "unit": "min"}, {"measurement": "microsomal CLint", "setting": "[2]", "result": 143, "unit": "µL/min/mg"}, {"measurement": "Remaining", "setting": "[2]", "result": 9, "unit": "%"}, {"measurement": "Remaining (without cofactor)", "setting": "[2]", "result": 110, "unit": "%"}]}, {"smiles": "O=C(Nc1ccccc1)Nc1ccc(C(=O)NC2c3cccc(O)c3CC2C(=O)O)cc1", "note": "(stereo not given)", "values": [{"measurement": "half-life", "setting": "[1]", "result": 1070, "unit": "min"}, {"measurement": "microsomal CLint", "setting": "[1]", "result": 2, "unit": "µL/min/mg"}, {"measurement": "Remaining", "setting": "[1]", "result": 111, "unit": "%"}, {"measurement": "Remaining (without cofactor)", "setting": "[1]", "result": 99, "unit": "%"}, {"measurement": "half-life", "setting": "[2]", "result": 187, "unit": "min"}, {"measurement": "microsomal CLint", "setting": "[2]", "result": 9, "unit": "µL/min/mg"}, {"measurement": "Remaining", "setting": "[2]", "result": 123, "unit": "%"}, {"measurement": "Remaining (without cofactor)", "setting": "[2]", "result": 96, "unit": "%"}]}, {"smiles": "CC(C)[C@H](Nc1ncnc2[nH]ccc12)c1ccc2c(c1)NC(=O)CO2", "values": [{"measurement": "half-life", "setting": "[1]", "result": 45.1, "unit": "min"}, {"measurement": "microsomal CLint", "setting": "[1]", "result": 37, "unit": "µL/min/mg"}, {"measurement": "Remaining", "setting": "[1]", "result": 54, "unit": "%"}, {"measurement": "Remaining (without cofactor)", "setting": "[1]", "result": 89, "unit": "%"}, {"measurement": "half-life", "setting": "[2]", "result": 160, "unit": "min"}, {"measurement": "microsomal CLint", "setting": "[2]", "result": 10, "unit": "µL/min/mg"}, {"measurement": "Remaining", "setting": "[2]", "result": 86, "unit": "%"}, {"measurement": "Remaining (without cofactor)", "setting": "[2]", "result": 95, "unit": "%"}]}, {"smiles": "COc1ccc([C@@H](CC(=O)O)NC(=O)c2ncnc3[nH]ccc23)cc1", "values": [{"measurement": "half-life", "setting": "[1]", "result": 686, "unit": "min"}, {"measurement": "microsomal CLint", "setting": "[1]", "result": 2, "unit": "µL/min/mg"}, {"measurement": "Remaining", "setting": "[1]", "result": 94, "unit": "%"}, {"measurement": "Remaining (without cofactor)", "setting": "[1]", "result": 96, "unit": "%"}, {"measurement": "half-life", "setting": "[2]", "result": 240, "unit": "min"}, {"measurement": "microsomal CLint", "setting": "[2]", "result": 7, "unit": "µL/min/mg"}, {"measurement": "Remaining", "setting": "[2]", "result": 87, "unit": "%"}, {"measurement": "Remaining (without cofactor)", "setting": "[2]", "result": 88, "unit": "%"}]}, {"smiles": "COc1ccc2c(c1)CCN(c1ncnc3[nH]ccc13)[C@H]2C(C)C", "values": [{"measurement": "half-life", "setting": "[1]", "result": 5.2, "unit": "min"}, {"measurement": "microsomal CLint", "setting": "[1]", "result": 321, "unit": "µL/min/mg"}, {"measurement": "Remaining", "setting": "[1]", "result": 1, "unit": "%"}, {"measurement": "Remaining (without cofactor)", "setting": "[1]", "result": 83, "unit": "%"}, {"measurement": "half-life", "setting": "[2]", "result": 27.8, "unit": "min"}, {"measurement": "microsomal CLint", "setting": "[2]", "result": 60, "unit": "µL/min/mg"}, {"measurement": "Remaining", "setting": "[2]", "result": 38, "unit": "%"}, {"measurement": "Remaining (without cofactor)", "setting": "[2]", "result": 103, "unit": "%"}]}, {"smiles": "O=C(Nc1cccc2c(C(=O)N[C@@H]3c4ccccc4C[C@@H]3C(=O)O)c[nH]c12)NC1CC1", "values": [{"measurement": "half-life", "setting": "[1]", "result": 454, "unit": "min"}, {"measurement": "microsomal CLint", "setting": "[1]", "result": 4, "unit": "µL/min/mg"}, {"measurement": "Remaining", "setting": "[1]", "result": 95, "unit": "%"}, {"measurement": "Remaining (without cofactor)", "setting": "[1]", "result": 105, "unit": "%"}, {"measurement": "half-life", "setting": "[2]", "result": 280, "unit": "min"}, {"measurement": "microsomal CLint", "setting": "[2]", "result": 6, "unit": "µL/min/mg"}, {"measurement": "Remaining", "setting": "[2]", "result": 88, "unit": "%"}, {"measurement": "Remaining (without cofactor)", "setting": "[2]", "result": 86, "unit": "%"}]}]}
